Experimental data as given in PubChem BioAssay (NCI).
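Dose response: 5 concentrations. Exposure: 48 h. Format: 96-well plates. Endpoint: linear interpolation; highest concentration if not reached. TGI: total growth inhibition.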

How the values were obtained:
Test in all cases: NCI anticancer screen, dose series, 48 h
MCF7 breast = tested on: MCF7 breast
CCRF-CEM leukemia = tested on: CCRF-CEM leukemia
U251 CNS = tested on: U251 CNS
HS 578T breast = tested on: HS 578T breast
MDA-MB-231 breast = tested on: MDA-MB-231 breast
SK-MEL-5 melanoma = tested on: SK-MEL-5 melanoma
NCI-H226 lung = tested on: NCI-H226 lung
HOP-62 NSCLC = tested on: HOP-62 NSCLC
ACHN renal = tested on: ACHN renal
SNB-75 CNS = tested on: SNB-75 CNS

Question: With `CCc1n[nH]c(=O)n1/N=C(\C)c1ccc([N+](=O)[O-])cc1` as the compound, how does the TGI (MCF7 breast) read?
Answer: Its TGI is > 100 µM.

Question: And the TGI (CCRF-CEM leukemia)?
Answer: Its TGI is > 100 µM.

Question: What about the TGI (U251 CNS) of the same compound?
Answer: Its TGI is > 100 µM.

Question: What about the TGI (HS 578T breast) of the same compound?
Answer: Its TGI is > 100 µM.

Question: And the TGI (MDA-MB-231 breast)?
Answer: The TGI was > 100 µM.

Question: What about the TGI (SK-MEL-5 melanoma) of the same compound?
Answer: Its TGI is > 100 µM.

Question: What about the TGI (NCI-H226 lung) of the same compound?
Answer: Its TGI is > 100 µM.

Question: What about the TGI (HOP-62 NSCLC) of the same compound?
Answer: Its TGI is > 100 µM.

Question: Which results are given for `COc1ccc(NC(C)=O)cc1N1C(=O)/C(=C\c2ccccc2)SC1c1cc(OC)c(OC)c(OC)c1` (centres undefined)?
Answer: TGI (ACHN renal): > 100 µM; TGI (MCF7 breast): > 100 µM; TGI (CCRF-CEM leukemia): > 100 µM; TGI (U251 CNS): > 100 µM; TGI (MDA-MB-231 breast): > 100 µM; TGI (SK-MEL-5 melanoma): 37 µM; TGI (NCI-H226 lung): 48.3 µM; TGI (HOP-62 NSCLC): > 100 µM

Question: Which TGI (ACHN renal) does the source give for `Clc1cc(Cl)c2cc3cccc[n+]3cc2c1Cl` here?
Answer: Its TGI is 31.7 µM.

Question: And the TGI (MCF7 breast)?
Answer: Its TGI is 31.9 µM.

Question: And the TGI (CCRF-CEM leukemia)?
Answer: The TGI was 37.2 µM.

Question: And the TGI (U251 CNS)?
Answer: Its TGI is 34.7 µM.

Question: What about the TGI (SNB-75 CNS) of the same compound?
Answer: The TGI was 24.7 µM.

Question: What about the TGI (HS 578T breast) of the same compound?
Answer: The TGI was 38.7 µM.

Question: And the TGI (MDA-MB-231 breast)?
Answer: Its TGI is 48.9 µM.

Question: And the TGI (SK-MEL-5 melanoma)?
Answer: Its TGI is 30.5 µM.

Question: What about the TGI (NCI-H226 lung) of the same compound?
Answer: The TGI was 43.6 µM.

Question: And the TGI (HOP-62 NSCLC)?
Answer: The TGI was 31.6 µM.

Question: For `OC[C@H]1NC[C@@H](O)[C@@H](O)[C@H]1O`, which TGI (MCF7 breast) is on record?
Answer: The TGI was > 100 µM.

Question: And the TGI (CCRF-CEM leukemia)?
Answer: The TGI was > 100 µM.

Question: What about the TGI (U251 CNS) of the same compound?
Answer: The TGI was > 100 µM.

Question: And the TGI (SNB-75 CNS)?
Answer: Its TGI is > 100 µM.

Question: What about the TGI (HS 578T breast) of the same compound?
Answer: Its TGI is > 100 µM.

Question: And the TGI (MDA-MB-231 breast)?
Answer: The TGI was > 100 µM.

Question: And the TGI (SK-MEL-5 melanoma)?
Answer: The TGI was > 100 µM.

Question: What about the TGI (NCI-H226 lung) of the same compound?
Answer: The TGI was > 100 µM.

Question: And the TGI (HOP-62 NSCLC)?
Answer: Its TGI is > 100 µM.

Question: `COc1ccc(-c2nc3c(nc2-c2ccc(OC)cc2)C(N)=NS(=O)(=O)N3)cc1` was tested. Which TGI (ACHN renal) did it give?
Answer: Its TGI is > 100 µM.

Question: And the TGI (CCRF-CEM leukemia)?
Answer: Its TGI is > 100 µM.

Question: And the TGI (U251 CNS)?
Answer: Its TGI is > 100 µM.

Question: And the TGI (SNB-75 CNS)?
Answer: The TGI was > 100 µM.

Question: And the TGI (SK-MEL-5 melanoma)?
Answer: The TGI was > 100 µM.

Question: What about the TGI (NCI-H226 lung) of the same compound?
Answer: Its TGI is > 100 µM.

Question: And the TGI (HOP-62 NSCLC)?
Answer: The TGI was > 100 µM.

Question: For `CSc1nc(CO)c(CO)n1C`, which TGI (MCF7 breast) is on record?
Answer: The TGI was > 100 µM.

Question: What about the TGI (CCRF-CEM leukemia) of the same compound?
Answer: The TGI was > 100 µM.

Question: What about the TGI (U251 CNS) of the same compound?
Answer: Its TGI is > 100 µM.

Question: And the TGI (SNB-75 CNS)?
Answer: The TGI was > 100 µM.

Question: What about the TGI (SK-MEL-5 melanoma) of the same compound?
Answer: The TGI was > 100 µM.

Question: And the TGI (NCI-H226 lung)?
Answer: The TGI was > 100 µM.

Question: And the TGI (HOP-62 NSCLC)?
Answer: The TGI was > 100 µM.

Question: What does the source list for `CCOC(=O)Cn1c2ccc(Br)cc2c2nc3ccccc3nc21`?
Answer: TGI (ACHN renal): > 100 µM; TGI (CCRF-CEM leukemia): > 100 µM; TGI (U251 CNS): > 100 µM; TGI (SNB-75 CNS): > 100 µM; TGI (HS 578T breast): > 100 µM; TGI (MDA-MB-231 breast): > 100 µM; TGI (SK-MEL-5 melanoma): > 100 µM; TGI (NCI-H226 lung): > 100 µM; TGI (HOP-62 NSCLC): > 100 µM

Question: How did the TGI (MCF7 breast) turn out when `O=C(NC(Cc1ccc(Br)cc1)C(=O)O)c1ccc(I)cc1` (centres undefined) was run?
Answer: The TGI was > 100 µM.

Question: And the TGI (CCRF-CEM leukemia)?
Answer: Its TGI is > 100 µM.

Question: And the TGI (U251 CNS)?
Answer: The TGI was > 100 µM.

Question: And the TGI (SNB-75 CNS)?
Answer: The TGI was > 100 µM.

Question: And the TGI (SK-MEL-5 melanoma)?
Answer: The TGI was > 100 µM.

Question: What about the TGI (NCI-H226 lung) of the same compound?
Answer: The TGI was > 100 µM.

Question: And the TGI (HOP-62 NSCLC)?
Answer: The TGI was > 100 µM.

Question: Which results are given for `CCN1c2cc(Br)cc3[nH]c(=O)n(c23)CCC1C` (centres undefined)?
Answer: TGI (ACHN renal): 63.5 µM; TGI (MCF7 breast): 54.5 µM; TGI (CCRF-CEM leukemia): > 100 µM; TGI (U251 CNS): 28.6 µM; TGI (SNB-75 CNS): 32.4 µM; TGI (HS 578T breast): 28.9 µM; TGI (MDA-MB-231 breast): 43.1 µM; TGI (SK-MEL-5 melanoma): 30 µM; TGI (NCI-H226 lung): 37.8 µM; TGI (HOP-62 NSCLC): 37.2 µM

Question: Which TGI (ACHN renal) does the source give for `CC(=O)Nc1cccc(N2C(=O)/C(=C\c3cccc(Oc4ccccc4)c3)S(=O)(=O)C2c2ccccc2)c1` (centres undefined) here?
Answer: Its TGI is > 100 µM.

Question: And the TGI (MCF7 breast)?
Answer: Its TGI is > 100 µM.

Question: What about the TGI (CCRF-CEM leukemia) of the same compound?
Answer: The TGI was > 100 µM.

Question: What about the TGI (U251 CNS) of the same compound?
Answer: Its TGI is > 100 µM.

Question: What about the TGI (SNB-75 CNS) of the same compound?
Answer: The TGI was > 100 µM.

Question: And the TGI (MDA-MB-231 breast)?
Answer: Its TGI is > 100 µM.

Question: What about the TGI (SK-MEL-5 melanoma) of the same compound?
Answer: Its TGI is > 100 µM.

Question: And the TGI (NCI-H226 lung)?
Answer: Its TGI is > 100 µM.

Question: What about the TGI (HOP-62 NSCLC) of the same compound?
Answer: Its TGI is > 100 µM.

Question: Which TGI (ACHN renal) does the source give for `CN(Cc1cn(O)c2nc(=N)nc(N)c-2n1)c1ccc(C(=O)NC23CC4CC(CC(C4)C2)C3)cc1` here?
Answer: The TGI was > 100 µM.

Question: What about the TGI (MCF7 breast) of the same compound?
Answer: Its TGI is > 100 µM.

Question: And the TGI (CCRF-CEM leukemia)?
Answer: Its TGI is > 100 µM.

Question: What about the TGI (U251 CNS) of the same compound?
Answer: Its TGI is > 100 µM.

Question: What about the TGI (SNB-75 CNS) of the same compound?
Answer: Its TGI is 76.2 µM.

Question: What about the TGI (HS 578T breast) of the same compound?
Answer: The TGI was 40.4 µM.

Question: What about the TGI (MDA-MB-231 breast) of the same compound?
Answer: The TGI was > 100 µM.

Question: What about the TGI (SK-MEL-5 melanoma) of the same compound?
Answer: Its TGI is > 100 µM.

Question: What about the TGI (NCI-H226 lung) of the same compound?
Answer: Its TGI is > 100 µM.

Question: And the TGI (HOP-62 NSCLC)?
Answer: Its TGI is > 100 µM.
